According to patent US20260193319A1, “PLATELET-BINDING PROTEINS AND CONJUGATES THEREOF, PARTICLES COMPRISING THEM AND USES THEREOF” (Haima Therapeutics, LLC, priority 2022, published 2026):
Several values for one entry are separate records, joined by “and”; a condition that tells them apart may be missing. Identical values can stand only once. Where a SMILES comes first, the peptide text is derived from it. Bridges are numbered along the chain shown (N, C = ends). [ ]: non-standard residue; d: D form. Pra = C#CC[C@H](N)C(=O)O; βAla = NCCC(=O)O

What was measured:
[1] = test system: human platelets (PRP stimulated with ADP); experiment: Peptide inhibition of platelet aggregation, light transmission aggregometry in human PRP/ADP; format: cell-based; conditions: for Peptide Inhibition of Platelet Aggregation, pass/fail result: criterion: inhibition of platelet aggregation, FMP2 IC50 ≤ FMP1 IC50; for IC50: human PRP/ADP, final aggregation, log-dose vs response fit, approximate
Description: The properties of the FMP2 peptide and peptide-decorated particles (synthetic platelet) were compared to those of the old FMP1 peptide. First, Chang et al. have shown that cyclic RGD peptides are able to selectively bind to activated platelets and prevent human platelet aggregation as measured via platelet light transmission aggregometry. This protocol was adapted and performed to compare the IC50 values of FMP1 and FMP2. Specifically, human whole blood was drawn from healthy, aspirin refraining donors via venipuncture into syringe containing 3.8% w/v sodium citrate. Platelet rich plasma (PRP) was obtained by centrifugation of whole blood in a tabletop centrifuge at 150×g for 15 minutes. Platelet aggregation experiments were performed with 225 μl of 25% o (v/v) diluted PRP stimulated with 25 μl of 10 μM adenosine 5′-diphosphate (ADP) (or saline as a negative control) on a Bio/Data PAP-8E Platelet Aggregation Profiler. 20 μl of saline containing 0.0001 μM to 250 μM of FMP1 or FMP2 (at each order of magnitude) were added to the 25% o diluted PRP, and final aggregation percentage was recorded. In GraphPad Prism®, a non-linear fit of log-dose vs. response was applied to the data, and the IC50 for each peptide was determined by calculating the intersection point at y=50.

[2] = biological target: GPIIb/IIIa on active human platelets (human) (UniProt P08514); experiment: cell-based or functional assay
UniProt P08514, sequence (P08514 32-1039, chain 1 of 2): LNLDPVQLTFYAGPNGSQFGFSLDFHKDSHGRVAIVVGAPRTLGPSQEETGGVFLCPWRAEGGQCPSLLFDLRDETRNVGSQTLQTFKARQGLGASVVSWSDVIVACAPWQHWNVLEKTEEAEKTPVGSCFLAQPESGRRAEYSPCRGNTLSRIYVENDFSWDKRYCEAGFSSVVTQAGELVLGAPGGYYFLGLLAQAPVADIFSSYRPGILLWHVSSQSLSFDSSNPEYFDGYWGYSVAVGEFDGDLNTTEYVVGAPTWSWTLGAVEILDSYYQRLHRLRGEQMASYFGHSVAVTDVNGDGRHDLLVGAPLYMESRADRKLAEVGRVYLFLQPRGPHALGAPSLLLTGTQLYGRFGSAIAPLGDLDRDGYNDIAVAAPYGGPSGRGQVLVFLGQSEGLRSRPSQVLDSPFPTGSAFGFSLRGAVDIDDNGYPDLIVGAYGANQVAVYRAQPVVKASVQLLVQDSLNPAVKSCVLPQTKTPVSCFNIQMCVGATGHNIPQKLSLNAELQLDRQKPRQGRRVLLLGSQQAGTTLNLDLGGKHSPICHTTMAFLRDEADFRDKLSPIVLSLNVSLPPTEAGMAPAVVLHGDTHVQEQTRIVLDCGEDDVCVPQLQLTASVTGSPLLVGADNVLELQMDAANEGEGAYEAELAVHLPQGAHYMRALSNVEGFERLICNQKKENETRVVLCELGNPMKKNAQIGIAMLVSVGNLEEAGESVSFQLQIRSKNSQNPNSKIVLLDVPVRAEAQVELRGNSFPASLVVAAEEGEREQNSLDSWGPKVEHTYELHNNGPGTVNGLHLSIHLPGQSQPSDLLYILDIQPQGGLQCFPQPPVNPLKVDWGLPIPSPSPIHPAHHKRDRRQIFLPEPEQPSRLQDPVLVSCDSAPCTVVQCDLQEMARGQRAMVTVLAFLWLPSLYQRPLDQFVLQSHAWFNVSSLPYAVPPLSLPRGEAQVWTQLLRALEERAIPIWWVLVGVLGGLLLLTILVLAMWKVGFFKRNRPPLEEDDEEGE
UniProt P08514, sequence (P05106 27-788, chain 2 of 2, further chain): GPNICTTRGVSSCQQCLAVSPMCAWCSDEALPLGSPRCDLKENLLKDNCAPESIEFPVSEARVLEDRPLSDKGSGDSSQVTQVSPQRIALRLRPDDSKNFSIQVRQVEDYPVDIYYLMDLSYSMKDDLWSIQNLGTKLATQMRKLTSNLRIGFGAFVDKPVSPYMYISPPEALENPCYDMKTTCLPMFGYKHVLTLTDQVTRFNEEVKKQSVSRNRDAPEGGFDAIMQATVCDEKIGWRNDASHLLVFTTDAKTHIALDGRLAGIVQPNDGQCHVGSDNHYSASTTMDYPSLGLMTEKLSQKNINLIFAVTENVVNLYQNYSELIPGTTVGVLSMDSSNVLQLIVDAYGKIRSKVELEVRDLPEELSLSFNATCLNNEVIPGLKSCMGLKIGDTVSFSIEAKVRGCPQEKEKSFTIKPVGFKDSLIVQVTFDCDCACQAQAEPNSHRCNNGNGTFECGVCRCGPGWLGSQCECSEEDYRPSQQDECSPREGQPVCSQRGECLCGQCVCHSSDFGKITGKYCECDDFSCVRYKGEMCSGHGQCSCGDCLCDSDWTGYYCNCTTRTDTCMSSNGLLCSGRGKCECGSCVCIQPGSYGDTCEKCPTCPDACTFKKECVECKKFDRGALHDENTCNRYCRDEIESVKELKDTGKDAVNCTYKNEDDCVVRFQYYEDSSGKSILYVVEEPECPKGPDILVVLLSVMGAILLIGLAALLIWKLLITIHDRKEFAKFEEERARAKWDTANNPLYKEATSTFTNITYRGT

Molecule	concentrations inhibiting platelet aggregation, FMP2 relative to FMP1 ([1]; comparison of IC50)	Peptide Inhibition of Platelet Aggregation, pass/fail result [1]	IC50 [1]	IC50 of inhibition of ADP-stimulated human platelet aggregation (light transmission aggregometry, diluted PRP, final aggregation %) [2] [µM]
CCOc1ccc(C[C@@H]2NC(=O)[C@H](CC(=O)O)NC(=O)CNC(=O)[C@H](CCCNC(=N)N)NC(=O)[C@@H]3CCCN3C(=O)[C@H](CC(N)=O)NC(=O)[C@H](CS)NC(=O)CCNC(=O)[C@H](CCCNC(=N)N)NC2=O)cc1 [FMP2, cyclo-(CNPRGD{Tyr(OEt)}R-β-A)] (cyclo(CNPRGDY(Et)R[βAla]))	over three orders of magnitude below FMP1	Pass	~0.13 µM and 0.13 µM	–
C#CC[C@H](N)C(=O)N[C@H]1CSSC[C@@H](C(=O)O)NC(=O)[C@H](CCCNC(=N)N)NC(=O)[C@H](Cc2ccc(OCC)cc2)NC(=O)[C@H](CC(=O)O)NC(=O)CNC(=O)[C@H](CCCNC(=N)N)NC(=O)[C@@H]2CCCN2C(=O)[C@H](CC(N)=O)NC1=O [FMP1, cyclo-{Pra}CNPRGD{Tyr(OEt)}RC, reference compound] (H-[Pra]CNPRGDY(Et)RC-OH; disulfide 2-10; N-terminus and C-terminus assumed)	–	Pass	~537 µM and 537 µM	–
FMP1, cyclo-{Pra}CNPRGD{Tyr(OEt)}RC trifluoroacetate salt (peptide)	–	–	–	537
FMP2, cyclo-(CNPRGD{Tyr(OEt)}R-β-A) trifluoroacetate salt (peptide)	–	–	–	0.13
